# Measurements from patent US6376488B1, “Benzoxazine α-1 adrenergic compounds” (Abbott Laboratories, priority 2000, dated 2002).
# Where a name gives a salt, the structure may show the parent alone.
row,melting point [°C],Compound
1,280 to 282,"COc1cccc2c1N1CCN(CCCCn3c(=O)[nH]c4c(sc5cccnc54)c3=O)CC1CO2 (single isomer, unassigned; (+)) (as salt: hydrochloride) [Example 14, (+) 3-[4-(10-methoxy-1,2,4a,5-tetrahydropyrazino[2,1-c][1,4]benzoxazin-3(4H)-yl)butyl]pyido [2′,3′:4,5]thieno[3,2-d]pyrimidine-2,4(1H,3H)-dione trihydrochloride]"
2,282 to 284,"O=c1[nH]c2c(sc3cccnc32)c(=O)n1CCCCN1CCN2c3ccccc3OCC2C1 (single isomer, unassigned; (-)) (as salt: hydrochloride) [Example 4, (−) 3-[4-(1.2,4a,5-tetrahydropyrazino[2,1-c][1,4benzoxazin-3(4H)-yl)butyl]pyrido[2′,3′:4,5]thieno[3,2-d]pyrimidine-2,4(1H,3H)-dione dihydrochloride]"
3,207 to 210,"COc1cccc2c1N1CCN(CCCCn3c(=O)[nH]c4c(sc5ncccc54)c3=O)CC1CO2 (single isomer, unassigned; (-)) (as salt: hydrochloride) [Example 11, (−) 3-[4-(10-methoxy-1,2,4a,5-tetrahydropyrazino[2,1-c][1,4]benzoxazin-3(4H)-yl)butyl]pyrido[3′,2′:4.5]thieno[3,2-d]pyrimidine-2,4(1H,3H)-dione trihydrochloride]"
